In publication PMC11357404, “Cytotoxic and Anti-HSV-1 Effects of Caulerpin Derivatives” (Molecules, 2024):
“Also recorded” adds a separate entry of the source.

Legend:
[1] = Cytotoxicity, MTT assay in Vero cells; type: cell-based, Cercopithecus aethiops; conditions: African green monkey (Cercopithecus aethiops); for CC50 at 72 h: Absolute CC50, Vero cells, MTT; for viability at 72 h: Vero cells, cell viability curves (Figure 2), read-out: maximum percentage of cell viability
Procedure: (§1) The method of Cheng et al. was followed with modifications to evaluate the cytotoxicity of caulerpin analogs 1, 2, 3, 4, 5, 7, 8, 9, 10, and 11 at concentrations ranging from 200 to 1800 µM. Vero cells (African green monkey kidney cells Cercopithecus aethiops; ATCC, Manassas, VA, USA) grown in Dulbecco’s modified medium (DMEM) supplemented with 5% fetal bovine serum (FBS), […], and 2.5 µg/mL gentamicin at 37 °C in 5% CO2 were used. Each test sample was diluted in DMEM containing 2% fetal bovine serum at six different concentrations. Vero cells were plated at a concentration of 2 × 10^4 cells/well and incubated for 24–36 h. […] After this time, the medium was discarded and 20 μL of MTT solution was added to each well. The plates were incubated for four hours at 37 °C. Subsequently, the supernatant was removed, and 150 μL of DMSO was added to each well to dissolve the formazan crystals. The plates were shaken for 10 min, followed by absorbance reading in an ELISA microplate reader at a wavelength of 540 nm.
(§2) The MTT assay was validated by constructing a trend line using linear regression in the GraphPad Prism Version 6.01 program. Assays that presented R^2 greater than 0.70 were considered appropriate. After the validation of the MTT assay, the CC50 and CC20 values of each tested analog were calculated.

Vero cells [2] = assay: Cytotoxicity, MTT assay in Vero cells; type: cell-based, Cercopithecus aethiops; conditions: Chlorocebus sabaeus; Vero cells, MTT, 72 h, 200 to 1800 µM
Procedure: as §1, §2

[3] = tested on: Herpes simplex virus type 1 (HSV-1) in Vero cells; assay: Antiviral screening, treatment concomitant to infection (MTT); type: cell-based; conditions: HSV-1 MOI 0.2, compound at CC20, 72 h; for inhibition of HSV-1-induced cytotoxicity (in words): versus untreated control or acyclovir
Procedure: (§3) The antiviral screening tests were performed following the method of Cheng et al., with modifications. For the anti-HSV-1 (herpes simplex virus type 1) activity of caulerpin analogs, Vero cells were used under the same conditions as described for the cytotoxicity test. The assay was divided into two steps:
Cells were infected with HSV-1 (MOI 0.2) and treated with the compound’s CC20 (concentration toxic to 20% of cells). The plates were incubated at 37 °C in 5% CO2 for 72 h, and cell viability was assessed using the MTT method.
(§4) In both assays, wells containing only cell medium were used as controls for cell growth. For positive control, wells containing medium and virus were used, and wells containing medium, virus, and acyclovir were used as a negative control.
(§5) The inhibition ratio was calculated using the following equation. % Inhibition=(OD treatment−OD positivecontrol)/(OD cell growth−OD positive control)×100 where OD = Optical density (absorbance).

[4] = tested on: Herpes simplex virus type 1 (HSV-1) in Vero cells; assay: Antiviral screening, post-infection treatment (MTT); type: cell-based; conditions: HSV-1 MOI 0.2 for 1 h, compound at CC20, 72 h, versus infected untreated control or acyclovir
Procedure: as §3
After removing the culture medium, the HSV-1 (MOI 0.2) was added to the wells containing cells for 1 h. After this time, the cells were washed, and the tested compounds and acyclovir were added to their CC20. The plates were incubated at 37 °C in 5% CO2 for 72 h and cell viability was assessed using the MTT method.
as §4, §5

Chikungunya virus = conditions: cited from earlier work
Vero cells [5] = tested on: Vero cells; parameters: method as in doi:10.1590/S0102-695X2012005000072; conditions: cited from earlier work
cancer cell = tested on: cancer cell; parameters: method as in PMID 25237346; conditions: caulerpin extracted from C. peltata; cited from earlier work

In the case of `CCn1c2c(c3ccccc31)C=C(C(=O)O)c1c(c3ccccc3n1CC)C=C2C(=O)O` [Analog 11, (6E,13E)-5,12-Diethyl-5,12-dihydrocycloocta[1,2b:5,6-b′]diindol-6,13-dicarboxylic acid], the CC50 at 72 h [1] is reported as 1000 ± 41.6 µM, the Emax (Vero cells [2]) is reported as 62.7 ± 0.8% and the “inhibition of HSV-1-induced cytotoxicity (in words)” value (“inhibition … (in words)” below) [3] is reported as “significant inhibition; also recorded: efficacy similar to the antiviral agent acyclovir”. The “inhibition … (in words)” value [4] was “higher percentages of cellular inhibition compared to the control group; also recorded: antiviral effects statistically similar to acyclovir”.

Compound `O=C(O)C1=Cc2c(n(Cc3ccccc3)c3ccccc23)C(C(=O)O)=Cc2c1n(Cc1ccccc1)c1ccccc21` [Analog 13, (6E,13E)-5,12-Dibenzyl-5,12-dihydrocycloocta[1,2 b: 5,6-b′]diindol-6,13-dicarboxylic acid] has a CC50 at 72 h [1] of 494 ± 51.4 µM and an Emax (Vero cells [2]) of 41 ± 1.2%.

With `CCn1c2c(c3ccccc31)C=C(C(=O)OC)c1c(c3ccccc3n1CC)C=C2C(=O)OC` [Analog 3, (6E,13E)-Dimethyl-5,12-diethyl-5,12 dihydrocycloocta[1,2 b: 5,6-b′]diindole-6,13-dicarboxylate] the CC50 at 72 h [1] was 548 ± 38.8 µM, the Emax (Vero cells [2]) was 51.5 ± 0.9% and the “inhibition … (in words)” value [3] was “significant inhibition”. For the same compound, the “inhibition … (in words)” value [4] was “higher percentages of cellular inhibition compared to the control group”.

For `Cn1c2c(c3ccccc31)C=C(C(=O)O)c1c(c3ccccc3n1C)C=C2C(=O)O` [Analog 10, (6E,13E)-5,12-Dimethyl-5-dihydrocycloocta[1,2b:5,6-b’]diindol-6,13-dicarboxylic acid], the CC50 at 72 h [1] was 679 ± 38.3 µM, the Emax (Vero cells [2]) was 71.8 ± 0.3% and the “inhibition … (in words)” value [4] was “higher percentages of cellular inhibition compared to the control group; also recorded: antiviral effects statistically similar to acyclovir”.

With `C=CCn1c2c(c3ccccc31)C=C(C(=O)OC)c1c(c3ccccc3n1CC=C)C=C2C(=O)OC` [Analog 4] the CC50 at 72 h [1] was 628 ± 69.8 µM, the viability at 72 h [1] was < 75% and the Emax (Vero cells [2]) was 70.1 ± 1.1%.

In the case of `C=CCn1c2c(c3ccccc31)C=C(C(=O)O)c1c(c3ccccc3n1CC=C)C=C2C(=O)O` [Analog 12, (6E,13E)-5,12-Diallyl-5,12-dihydrocycloocta[1,2b:5,6-b′]diindol-6,13-dicarboxylic acid], the CC50 at 72 h [1] is reported as 664 ± 55.3 µM, the Emax (Vero cells [2]) is reported as 44.5 ± 1.3% and the “inhibition … (in words)” value [3] is reported as “significant inhibition; also recorded: efficacy similar to the antiviral agent acyclovir”. For the same compound, the “inhibition … (in words)” value [4] was “higher percentages of cellular inhibition compared to the control group”.

`O=C(O)C1=Cc2c([nH]c3ccccc23)C(C(=O)O)=Cc2c1[nH]c1ccccc21` [Analog 9, (6E,13E)-5,12-Dihydrocycloocta[1,2b:5,6-b′]diindol-6,13-dicarboxylic acid] showed a CC50 at 72 h [1] of 1040 ± 62.4 µM and an Emax (Vero cells [2]) of 62.6 ± 0.7%.

With `Nc1nc2c(ncn2COCCO)c(=O)[nH]1` [Acyclovir, reference compound] the “inhibition percentage of HSV-1-induced cytotoxicity” value ([3]; Vero cells) was 52.79%.

With `COC(=O)/C1=C/c2c([nH]c3ccccc23)/C(C(=O)OC)=C\c2c1[nH]c1ccccc21` [Analog 1, (6E,13E)-dimethyl-5,12-dihydrocycloocta[1,2b:5,6-b′]diindol-6,13-dicarboxylate] the CC50 at 72 h [1] was 688 ± 35.2 µM, the Emax (Vero cells [2]) was 52.7 ± 1.8% and the “inhibition … (in words)” value [4] was “higher percentages of cellular inhibition compared to the control group”. For the same compound, the EC50 (Chikungunya virus; Chikungunya virus, read-out: EC50 inhibitory effect) was 0.8 µM, the “inhibition of viral infectivity (virucidal activity)” value (Chikungunya virus; at 5 μM concentration) was ~90% and the CC50 (Vero cells [5]) was 1180 µM. The “inhibition of cancer cell growth” value (cancer cell) was 12%.

For `COC(=O)C1=Cc2c(n(Cc3ccccc3)c3ccccc23)C(C(=O)OC)=Cc2c1n(Cc1ccccc1)c1ccccc21` [Analog 6, (6E,13E)-Dimethyl-5,12-dinzyl 5,12-dihydrocycloocta[1,2b:5,6-b′]diindol-6,13-dicarboxylate], the CC50 at 72 h [1] was 891 ± 87.8 µM, the Emax (Vero cells [2]) was 74.1 ± 1.8% and the “inhibition … (in words)” value [3] was “significant inhibition”. The “inhibition … (in words)” value [4] was “higher percentages of cellular inhibition compared to the control group”.

With `COC(=O)C1=Cc2c(n(C)c3ccccc23)C(C(=O)OC)=Cc2c1n(C)c1ccccc21` [Analog 2, (6E,13E)-Dimethyl-5,12-dimethyl-5,12 dihydrocycloocta[1,2 b: 5,6-b′]diindol-6,13-dicarboxylate] the CC50 at 72 h [1] was 524 ± 19.3 µM, the viability at 72 h [1] was < 75% and the Emax (Vero cells [2]) was 68.4 ± 0.2%.
